Measured values from US12374421B2, “Bioinformatic processes for determination of peptide binding” (priority 2013, dated 2025).

Tests used:
RL9-pulsed splenocytes = tested on: RL9-pulsed splenocytes; parameters: species or system mice; conditions: mouse, in vivo
MHC I molecules = conditions: in vivo; cited from earlier work

RYCINSASL (SEQ ID NO: 28419) [RL9]
response pattern after immunization (RL9-pulsed splenocytes): protective response pattern | MHC I presentation (MHC I molecules): presented on MHC I molecules
